Where a name gives a salt, the structure may show the parent alone. Read-outs that look alike come from different tables or passages of the source.
Molecular target: T1, human mAChR M4 (Homo sapiens, UniProt P08173)
T1 sequence (P08173 1-479): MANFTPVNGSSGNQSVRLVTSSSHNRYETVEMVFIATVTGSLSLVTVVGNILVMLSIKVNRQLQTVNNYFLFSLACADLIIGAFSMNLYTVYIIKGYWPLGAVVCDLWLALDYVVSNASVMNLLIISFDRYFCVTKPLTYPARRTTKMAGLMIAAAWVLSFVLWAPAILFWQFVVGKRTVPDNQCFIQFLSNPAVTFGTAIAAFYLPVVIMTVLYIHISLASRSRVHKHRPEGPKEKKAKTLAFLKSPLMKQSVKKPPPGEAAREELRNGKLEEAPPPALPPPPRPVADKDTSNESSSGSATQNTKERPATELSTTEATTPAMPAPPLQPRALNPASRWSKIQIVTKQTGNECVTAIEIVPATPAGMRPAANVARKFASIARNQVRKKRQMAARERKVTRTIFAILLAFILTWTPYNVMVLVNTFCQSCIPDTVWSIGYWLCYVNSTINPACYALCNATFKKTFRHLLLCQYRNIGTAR
Test: mAChR M4 cell-based functional assay (calcium flux), human M4
Conditions: for Emax: % ACh maximum at 30 μM

[1] = Human M4 EC50, CHO-K1 hM4-Gqi5 cells, calcium flux, increase in EC20 acetylcholine response
[2] = Human M4 EC50 (nM), Table 10, calcium flux, PAM activity with EC20 acetylcholine

| SMILES | Emax (Human M4) [%] | EC50 [2] [nM] | Emax (Table 10) [%] | further results |
| --- | --- | --- | --- | --- |
| Cc1nnc2oc3c(NC4CN(c5ncc(F)cn5)C4)ncnc3c2c1C [Compound 63, N-[1-(5-Fluoropyrimidin-2-yl)azetidin-3-yl]-3,4-dimethyl-pyrimido[4′,5′:4,5]furo[2,3-c]pyridazin-8-amine] | 36.8 | – | – | – |
| Cc1nnc2oc3c(NCc4ccc(C5(O)CCC5)cc4)ncnc3c2c1C [Compound 64, 1-[4-[[(3,4-dimethylpyrimido [4′,5′:4,5]furo[2,3-c]pyridazin-8-yl)amino]methyl]phenyl] cyclobutanol] | 58.2 | – | – | EC50 [1]: 862 nM |
| Cc1nnc2oc3c(NCc4ccc(C(C)(C)O)cc4)ncnc3c2c1C [Compound 65, 2-[4-[[(3,4-dimethylpyrimido[4′,5′:4,5]furo[2,3-c]pyridazin-8-yl)amino]methyl]phenyl]propan-2-ol] | 61.2 | – | – | EC50 [1]: 2290 nM |
| Cc1nnc2oc3c(NCc4cccc(C5(O)CCC5)c4)ncnc3c2c1C [Compound 66, 1-[3-[[(3,4-dimethylpyrimido [4′,5′:4,5]furo[2,3-c]pyridazin-8-yl)amino]methyl]phenyl]cyclobutanol] | 61.1 | – | – | – |
| Cc1nnc2oc3c(NCc4cccc(C(C)(C)O)c4)ncnc3c2c1C [Compound 67, 2-[3-[[(3,4-dimethylpyrimido [4′,5′:4,5]furo[2,3-c]pyridazin-8-yl)amino]methyl]phenyl]propan-2-ol] | 63.4 | – | – | – |
| Cc1nnc2oc3c(NC4CC4)ncnc3c2c1C [Compound 68, N-cyclopropyl-3,4-dimethyl-pyrimido [4′,5′:4,5]furo[2,3-c]pyridazin-8-amine] | 66.5 | – | – | EC50 [1]: 1310 nM |
| Cc1nnc2oc3c(NC4CCC4)ncnc3c2c1C [Compound 69, N-cyclobutyl-3,4-dimethyl-pyrimido [4′,5′:4,5]furo[2,3-c]pyridazin-8-amine] | 54.8 | – | – | – |
| Cc1nnc2oc3c(NC4CCCC4)ncnc3c2c1C [Compound 70, N-cyclopentyl-3,4-dimethyl-pyrimido [4′,5′:4,5]furo[2,3-c]pyridazin-8-amine] | 45.9 | – | – | EC50 [1]: 818 nM |
| Cc1nnc2oc3c(NC4CC5(COC5)C4)ncnc3c2c1C [Compound 71, 3,4-dimethyl-N-(2-oxaspiro[3.3]heptan-6-yl)pyrimido[4′,5′:4,5] furo[2,3-c]pyridazin-8-amine] | 37.2 | – | – | EC50 [1]: > 10000 nM |
| Cc1nnc2oc3c(NC4CC(F)(F)C4)ncnc3c2c1C [Compound 72, N-(3,3-difluorocyclobutyl)-3,4-dimethyl-pyrimido [4′,5′:4,5]furo[2,3-c]pyridazin-8-amine] | 57.9 | – | – | EC50 [1]: 1750 nM |
| Cc1nnc2oc3c(N4CC5(COC5)C4)ncnc3c2c1C [Compound 73, 3,4-dimethyl-8-(2-oxa-6-azaspiro[3.3]heptan-6-yl)pyrimido[4′,5′:4,5]furo [2,3-c]pyridazine] | 46.1 | – | – | EC50 [1]: 4840 nM |
| Cc1nnc2oc3c(NCc4ccc(C(C)(C)O)nc4)ncnc3c2c1C [Compound 74, 2-[5-[[(3,4-dimethylpyrimido [4′,5′:4,5]furo[2,3-c]pyridazin-8-yl)amino]methyl]-2-pyridyl]propan-2-ol] | 59.5 | – | – | EC50 [1]: 9160 nM |
| COc1ccc(CNc2ncnc3c2oc2nnc(C)c(C)c23)cc1F [Compound 75, N-[(3-fluoro-4-methoxy-phenyl)methyl]-3,4-dimethyl-pyrimido[4′,5′:4,5]furo[2,3-c]pyridazin-8-amine] | 36.4 | – | – | – |
| COc1ccc(C2CC2Nc2ncnc3c2sc2nnc(C)c(C)c23)cc1 (stereo not shown) [Compound 77, N-(2-(4-methoxyphenyl)cyclopropyl)-3,4-dimethylpyrimido [4′,5′:4,5]thieno[2,3-c] pyridazin-8-amine] | – | 200 | 86 | – |
| COc1ccc(CNc2ncnc3c2sc2nnc(C)c(C)c23)cc1F [Compound 78, N-(3-fluoro-4-methoxybenzyl)-3,4-dimethylpyrimido [4′,5′:4,5]thieno[2,3-c] pyridazin-8-amine] | – | – | 71.6 | – |
| Cc1nnc2sc3c(NCc4ccc(-c5cccnc5F)cc4)ncnc3c2c1C [Compound 79, N-(4-(2-fluoropyridin-3-yl)benzyl)-3,4-dimethylpyrimido [4′,5′:4,5]thieno[2,3-c] pyridazin-8-amine] | – | 773 | 95.2 | – |
| Cc1nnc2sc3c(N4CC(C)(O)C4)ncnc3c2c1C [Compound 80, 1-(3,4-dimethylpyrimido [4′,5′:4,5]thieno[2,3-c]pyridazin-8-yl)-3-methyl-azetidin-3-ol] | – | – | 62.1 | – |

| SMILES | Emax (Human M4) [%] | EC50 [2] [nM] | Emax (Table 10) [%] | further results |
| --- | --- | --- | --- | --- |
| Cc1nnc2sc3c(NC4CCN(c5cccc(F)c5F)C4)ncnc3c2c1C (stereo not shown) [Compound 81, N-[1-(2,3-difluorophenyl)pyrrolidin-3-yl]-3,4-dimethyl-pyrimido [4′,5′:4,5]thieno[2,3-c] pyridazin-8-amine] | – | 3120 | 62.6 | – |
| Cc1nnc2sc3c(NC4CN(c5ncc(C6CC6)cc5Cl)C4)ncnc3c2c1C [Compound 82, N-[1-(3-chloro-5-cyclopropyl-2-pyridyl)azetidin-3-yl]-3,4-dimethyl-pyrimido [4′,5′:4,5]thieno[2,3-c] pyridazin-8-amine] | – | – | 50.1 | EC50 (Human M4 EC50 (nM), Table 10, unit μM (bounds)): > 10000 nM |
| Cc1nc(C2CC2)ccc1N1CC(Nc2ncnc3c2sc2nnc(C)c(C)c23)C1 [Compound 83, N-[1-(6-cyclopropyl-2-methyl-3-pyridyl)azetidin-3-yl]-3,4-dimethyl-pyrimido [4′,5′:4,5]thieno[2,3-c] pyridazin-8-amine] | – | 288 | 59.7 | – |
| Cc1nnc2sc3c(NC4CN(c5ncc(F)cn5)C4)ncnc3c2c1C [Compound 84, N-[1-(5-fluoropyrimidin-2-yl)azetidin-3-yl]-3,4-dimethyl-pyrimido [4′,5′:4,5]thieno[2,3-c] pyridazin-8-amine] | – | – | 64.9 | EC50: 27.6 nM |
| Cc1nnc2sc3c(NC4CN(c5cc(Cl)ncc5Cl)C4)ncnc3c2c1C [Compound 85, N-[1-(2,5-dichloro-4-pyridyl)azetidin-3-yl]-3,4-dimethyl-pyrimido [4′,5′:4,5]thieno[2,3-c] pyridazin-8-amine] | – | – | 74.3 | – |
| Cc1nnc2sc3c(NC4CN(c5cnc(C6CC6)cn5)C4)ncnc3c2c1C [Compound 86, N-[1-(5-cyclopropylpyrazin-2-yl)azetidin-3-yl]-3,4-dimethyl-pyrimido [4′,5′:4,5]thieno[2,3-c] pyridazin-8-amine] | – | 60.4 | 69 | – |
| Cc1nnc2sc3c(NC4CN(C(=O)OC(C)(C)C)C4)ncnc3c2c1C [Compound 87, tert-butyl 3-[(3,4-dimethylpyrimido [4′,5′:4,5]thieno[2,3-c]pyridazin-8-yl)amino] azetidine-1-carboxylate] | – | 139 | 70.5 | – |
| Cc1nnc2sc3c(NC4CNC4)ncnc3c2c1C [Compound 88, N-(azetidin-3-yl)-3,4-dimethyl-pyrimido [4′,5′:4,5]thieno[2,3-c] pyridazin-8-amine dihydrochloride] | – | 1190 | 73.7 | – |
| Cc1nnc2sc3c(NC4CN(c5ncc(OC(C)C)cn5)C4)ncnc3c2c1C [Compound 89, N-[1-(5-isopropoxypyrimidin-2-yl)azetidin-3-yl]-3,4-dimethyl-pyrimido [4′,5′:4,5]thieno[2,3-c] pyridazin-8-amine] | – | 75.2 | 57.8 | – |
| Cc1nnc2sc3c(NCc4ccc(OC(F)F)nc4)ncnc3c2c1C [Compound 90, N-[[6-(difluoromethoxy)-3-pyridyl]methyl]-3,4-dimethyl-pyrimido [4′,5′:4,5]thieno[2,3-c] pyridazin-8-amine] | – | 277 | 76.7 | – |
| Cc1nnc2sc3c(NCc4ccc(OCC5CC5)c(F)c4)ncnc3c2c1C [Compound 91, N-[[4-(cyclopropylmethoxy)-3-fluoro-phenyl]methyl]-3,4-dimethyl-pyrimido [4′,5′:4,5]thieno[2,3-c] pyridazin-8-amine] | – | 3130 | 61.8 | – |
| Cc1nnc2sc3c(NCc4ccc(S(F)(F)(F)(F)F)cc4)ncnc3c2c1C [Compound 92, 3,4-dimethyl-N-[[4-(pentafluoro-λ6-sulfanyl)phenyl]methyl]pyrimido [4′,5′:4,5]thieno[2,3-c] pyridazin-8-amine] | – | 5270 | 67.3 | – |
| Cc1nnc2sc3c(NCc4ccc(S(C)(=O)=O)cc4)ncnc3c2c1C [Compound 93, 3,4-dimethyl-N-[(4-methylsulfonylphenyl)methyl] pyrimido[4′,5′:4,5]thieno [2,3-c]pyridazin-8-amine] | – | 192 | 61.3 | – |
| COc1ccc(CNc2ncnc3c2sc2nnc(C)c(C)c23)cc1OC [Compound 94, N-[(3,4-dimethoxyphenyl)methyl]-3,4-dimethyl-pyrimido[4′,5′:4,5]thieno [2,3-c]pyridazin-8-amine] | – | 639 | 79.7 | – |
| Cc1nnc2sc3c(N4CC(N)C4)ncnc3c2c1C [Compound 95, 1-(3,4-dimethylpyrimido [4′,5′:4,5]thieno[2,3-c]pyridazin-8-yl) azetidin-3-amine] | – | 395 | 61.4 | – |
| CC(=O)NC1CN(c2ncnc3c2sc2nnc(C)c(C)c23)C1 [Compound 96, N-[1-(3,4-dimethylpyrimido [4′,5′:4,5]thieno[2,3-c]pyridazin-8-yl)azetidin-3-yl]acetamide] | – | 830 | 60.3 | – |
